From PMC11335192, “Unveiling the crucial role of betaine: modulation of GABA homeostasis via SLC6A1 transporter (GAT1)” (Cellular and Molecular Life Sciences: CMLS, 2024)

Tests used:
Format in all cases: cell-based
human GAT1 (hGAT1) = biological target: T1, human GAT1 (hGAT1) (Homo sapiens, UniProt P30531); assay: automated whole-cell patch clamp (Patchliner) on CHO cells overexpressing hGAT1
T1 construct: gene SLC6A1

canine BGT-1 (cBGT-1) = biological target: T2, canine BGT-1 (cBGT-1) (Canis lupus, UniProt P27799); assay: TEVC transport currents in Xenopus oocytes
T2 construct: gene SLC6A12
T2 sequence (P27799 1-614): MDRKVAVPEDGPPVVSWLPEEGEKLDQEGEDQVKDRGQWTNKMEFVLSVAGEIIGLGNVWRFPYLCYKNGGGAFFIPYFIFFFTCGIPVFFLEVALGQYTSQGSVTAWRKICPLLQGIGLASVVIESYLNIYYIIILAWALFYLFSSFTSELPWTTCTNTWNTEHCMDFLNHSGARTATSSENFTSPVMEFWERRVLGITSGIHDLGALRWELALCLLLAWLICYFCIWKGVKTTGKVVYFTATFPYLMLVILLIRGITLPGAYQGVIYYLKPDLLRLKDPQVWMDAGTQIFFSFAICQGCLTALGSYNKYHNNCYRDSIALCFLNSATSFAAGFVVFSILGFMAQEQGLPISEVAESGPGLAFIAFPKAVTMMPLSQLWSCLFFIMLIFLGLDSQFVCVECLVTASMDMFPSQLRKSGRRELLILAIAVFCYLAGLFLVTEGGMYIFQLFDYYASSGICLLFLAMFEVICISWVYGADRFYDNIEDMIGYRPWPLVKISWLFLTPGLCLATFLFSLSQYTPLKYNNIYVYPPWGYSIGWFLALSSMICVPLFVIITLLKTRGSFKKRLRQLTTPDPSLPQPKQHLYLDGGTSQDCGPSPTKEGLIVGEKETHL

rat GAT1 (rGAT1) = biological target: T3, rat GAT1 (rGAT1) (Rattus norvegicus, UniProt P23978); assay: TEVC transport currents in Xenopus oocytes; LC-MS/MS uptake; [3H]-GABA efflux in HEK293-rGAT1 cells
T3 construct: gene Slc6a1

T1 sequence (P30531 whole entry): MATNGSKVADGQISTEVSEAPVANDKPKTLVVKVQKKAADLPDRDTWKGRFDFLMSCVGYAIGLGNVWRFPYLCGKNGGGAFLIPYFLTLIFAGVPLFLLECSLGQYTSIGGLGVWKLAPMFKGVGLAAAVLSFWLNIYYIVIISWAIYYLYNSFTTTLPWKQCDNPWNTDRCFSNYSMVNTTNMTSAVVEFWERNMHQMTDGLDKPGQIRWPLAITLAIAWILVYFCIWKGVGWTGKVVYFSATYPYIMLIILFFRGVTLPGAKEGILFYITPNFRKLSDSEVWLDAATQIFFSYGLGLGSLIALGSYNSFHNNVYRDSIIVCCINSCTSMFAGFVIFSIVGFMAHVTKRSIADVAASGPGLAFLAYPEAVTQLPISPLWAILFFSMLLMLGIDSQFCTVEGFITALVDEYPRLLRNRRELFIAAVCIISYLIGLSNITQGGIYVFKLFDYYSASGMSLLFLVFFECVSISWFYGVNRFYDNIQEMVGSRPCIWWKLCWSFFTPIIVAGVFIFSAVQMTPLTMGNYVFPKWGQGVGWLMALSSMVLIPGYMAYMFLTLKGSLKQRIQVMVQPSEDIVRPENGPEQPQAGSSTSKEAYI

## C[N+](C)(C)CC(=O)O [Betaine]
Human GAT1 (hGAT1)
  EC50: ~27 mM
Canine BGT-1 (cBGT-1)
  EC50: 1.69 mM
Rat GAT1 (rGAT1)
  EC50: 11.6 mM
